In the supplement of paper PMC13380429:

Key:
Settings in all cases: 72 h
Vero E6 [1] = assay: drug sensitivity score (DSS) for viability; higher = more toxic; extreme values may be limits of the assay
U2OS [2] = assay: as above
HepG2 [3] = assay: as above
Calu-3 [4] = assay: as above
Caco-2 [5] = assay: as above
Vero E6 [6] = assay: relative viability EC50 (midpoint between 100% and the lowest measured viability); higher = less toxic
U2OS [7] = assay: as above
HepG2 [8] = assay: as above
Calu-3 [9] = assay: as above
Caco-2 [10] = assay: as above
Vero E6 [11] = assay: cell viability relative to DMSO; higher = less toxic
U2OS [12] = assay: as above
HepG2 [13] = assay: as above
Calu-3 [14] = assay: as above
Caco-2 [15] = assay: as above

Row | SMILES | drug sensitivity score (Vero E6 [1]) | drug sensitivity score (U2OS [2]) | drug sensitivity score (HepG2 [3]) | drug sensitivity score (Calu-3 [4]) | drug sensitivity score (Caco-2 [5]) | relative viability EC50 (Vero E6 [6]) | relative viability EC50 (U2OS [7]) | relative viability EC50 (HepG2 [8]) | relative viability EC50 (Calu-3 [9]) | relative viability EC50 (Caco-2 [10]) | cell viability (Vero E6 [11]; 1 nM) | cell viability (Vero E6 [11]; 10 nM) | cell viability (Vero E6 [11]; 100 nM) | cell viability (Vero E6 [11]; 1000 nM) | cell viability (Vero E6 [11]; 10000 nM) | cell viability (U2OS [12]; 1 nM) | cell viability (U2OS [12]; 10 nM) | cell viability (U2OS [12]; 100 nM) | cell viability (U2OS [12]; 1000 nM) | cell viability (U2OS [12]; 10000 nM) | cell viability (HepG2 [13]; 1 nM) | cell viability (HepG2 [13]; 10 nM) | cell viability (HepG2 [13]; 100 nM) | cell viability (HepG2 [13]; 1000 nM) | cell viability (HepG2 [13]; 10000 nM) | cell viability (Calu-3 [14]; 1 nM) | cell viability (Calu-3 [14]; 10 nM) | cell viability (Calu-3 [14]; 100 nM) | cell viability (Calu-3 [14]; 1000 nM) | cell viability (Calu-3 [14]; 10000 nM) | cell viability (Caco-2 [15]; 1 nM) | cell viability (Caco-2 [15]; 10 nM) | cell viability (Caco-2 [15]; 100 nM) | cell viability (Caco-2 [15]; 1000 nM) | cell viability (Caco-2 [15]; 10000 nM)
1 | CCCNC(C)C(=O)Nc1ccccc1C (stereo not given) [prilocaine] | 0 | 0 | 0 | 0 | 0 | > 10 µM | > 10 µM | > 10 µM | > 10 µM | > 10 µM | 101% | 98.9% | 92.2% | 99.8% | 96.9% | 100% | 108% | 99.3% | 105% | 96.9% | 113% | 91.9% | 102% | 96.2% | 98.8% | 89% | 102% | 95.5% | 94% | 101% | 95.1% | 100% | 99.1% | 102% | 97.3%
2 | Clc1cccc(SC2CCNCC2)n1 [anpirtoline] | 0 | 0 | 0 | 0 | 0 | > 10 µM | > 10 µM | > 10 µM | > 10 µM | > 10 µM | 102% | 104% | 99.1% | 98.4% | 96.5% | 99.3% | 96.5% | 100% | 96.1% | 100% | 109% | 102% | 107% | 104% | 97.9% | 94.9% | 98.6% | 93.5% | 98.3% | 114% | 93.1% | 93.5% | 101% | 100% | 96.8%
3 | c1cnc2cc3c(cc2n1)[C@@H]1CNC[C@H]3C1 [varenicline] | 0 | 0 | 0 | 0 | 0 | > 10 µM | > 10 µM | > 10 µM | > 10 µM | > 10 µM | 91% | 99.8% | 91.4% | 98.7% | 104% | 97.5% | 93.5% | 103% | 96.3% | 104% | 97.2% | 88.7% | 90.4% | 95.4% | 101% | 105% | 99.1% | 108% | 98.1% | 105% | 95.4% | 91.9% | 103% | 93.1% | 93.7%
4 | CCS(=O)(=O)c1cccc(-c2cc(C(=O)NC3CCN(C)CC3)c(C)c3[nH]c4ncc(C)cc4c23)c1 [TAK-901] | 1.1 | 8.9 | 12.7 | 8 | 6.7 | > 10 µM | 1.43 µM | 0.439 µM | 1.28 µM | 1.06 µM | 105% | 100% | 100% | 97% | 78.7% | 98.3% | 98.5% | 98.9% | 73.6% | 9.3% | 94.1% | 104% | 76.5% | 48.1% | 15.7% | 108% | 100% | 95.5% | 69.9% | 21.3% | 98.4% | 99.7% | 90.4% | 72% | 36.5%
5 | C[C@@](Cc1ccc(O)c(O)c1)(NN)C(=O)O [carbidopa] | 0 | 0 | 0 | 0 | 0 | > 10 µM | > 10 µM | > 10 µM | > 10 µM | > 10 µM | 92.6% | 87.6% | 91.4% | 90.4% | 106% | 92.9% | 99.9% | 92.8% | 100% | 102% | 107% | 113% | 101% | 98.5% | 95.8% | 100% | 103% | 89.5% | 114% | 99.9% | 98.1% | 94.4% | 95.1% | 110% | 108%
6 | C/N=C(/NC#N)NCCSCc1csc(NC(=N)N)n1 [tiotidine] | 0 | 0 | 0 | 0 | 0 | > 10 µM | > 10 µM | > 10 µM | > 10 µM | > 10 µM | 91.5% | 96.6% | 96.6% | 92.8% | 108% | 105% | 96% | 97.9% | 98.6% | 106% | 96.4% | 105% | 98.3% | 108% | 113% | 99.5% | 97.2% | 91.7% | 101% | 104% | 102% | 94.4% | 104% | 104% | 110%
7 | CCC(=O)O[C@]1(C(=O)COC(C)=O)CC[C@H]2[C@@H]3C[C@H](C)C4=CC(=O)C=C[C@]4(C)[C@H]3[C@@H](O)C[C@@]21C [methylprednisolone-aceponate] | 0 | 0 | 0 | 0 | 0 | > 10 µM | > 10 µM | > 10 µM | > 10 µM | > 10 µM | 88% | 100% | 92.6% | 98.3% | 104% | 101% | 94.3% | 98.5% | 96.9% | 98.1% | 92.1% | 101% | 91.1% | 101% | 99.3% | 101% | 91.6% | 91.1% | 95.1% | 96.5% | 89.6% | 95.1% | 97.4% | 96.5% | 105%
8 | Cc1cc(C(=O)Nc2cccc(C(=O)Nc3cccc(C(F)(F)F)c3)c2)on1 | 0 | 0 | 1.5 | 0 | 0 | > 10 µM | > 10 µM | > 10 µM | > 10 µM | > 10 µM | 100% | 99.4% | 96.7% | 97.3% | 103% | 99% | 99.3% | 94.8% | 104% | 104% | 103% | 92.3% | 109% | 92.9% | 79.1% | 93.7% | 99.8% | 99.7% | 102% | 99.8% | 96.2% | 96.6% | 89.5% | 101% | 105%
9 | OC[C@H]1O[C@@H](c2ccc(Cl)c(Cc3ccc(O[C@H]4CCOC4)cc3)c2)[C@H](O)[C@@H](O)[C@@H]1O [empagliflozin] | 0 | 0 | 0 | 0 | 0 | > 10 µM | > 10 µM | > 10 µM | > 10 µM | > 10 µM | 90% | 103% | 95% | 94.9% | 106% | 98.6% | 92.3% | 103% | 96.7% | 96.4% | 99.4% | 109% | 91.9% | 109% | 117% | 87.9% | 110% | 114% | 98.7% | 101% | 95% | 97.3% | 102% | 94.7% | 104%
10 | C[C@H](NC(=O)Cc1cc(F)cc(F)c1)C(=O)N[C@@H]1C(=O)N(C)c2ccccc2-c2ccccc21 | 0 | 0 | 0 | 0 | 0 | > 10 µM | > 10 µM | > 10 µM | > 10 µM | > 10 µM | 100% | 98.7% | 97.1% | 102% | 109% | 94.8% | 96.8% | 90.9% | 91.5% | 93.1% | 112% | 95.7% | 102% | 98.2% | 98.6% | 106% | 89.5% | 90.6% | 97% | 94.9% | 89.5% | 88.6% | 93.1% | 94.3% | 96.7%
